Series [1] is described as follows: equilibrium solubility of crystalline Cur in excipient solutions. To be noted: read-out: equilibrium solubility (Cur con.). The series is classed as physicochemical. The protocol: Excess crystalline Cur was suspended in each solution, vortexed (1 min), sonicated (10 min), and incubated (37 °C, 24 h). After incubation, suspensions were filtered (0.22 μm), and Cur concentration in the filtrate was quantified using HPLC/UV-Vis (HPLC/UV-Vis Method section). All experiments were performed in quadruplicate (n = 4).
Cur content in in vitro dissolution samples was quantified using a Waters 2695 Alliance HPLC system (Waters Corporation, Milford, MA, USA) equipped with a Waters 2998 photodiode array (PDA) detector. Separation was performed on an XBridge® C18 column (4.6 × 250 mm, 5.0 μm; Waters) maintained at 25 °C. The mobile phase, composed of water and methanol (80:20, v/v), was delivered isocratically at a flow rate of 1.0 mL/min. The injection volume was 10 μL, and detection was performed at 430 nm, and Cur eluted at approximately 4.80 min. […] All data were acquired in triplicate (n = 3) and processed using Empower®3 Software (Waters).

Series [2] is described as follows: in vivo pharmacokinetic study in rats. Further details: species or system Sprague-Dawley (SD) rats. To be noted: rat; for plasma concentration of Cur, individual animals: Rat1-Rat5. The protocol:
Male Sprague-Dawley (SD) rats (200 ± 20 g) were supplied by SPF Biotechnology Co., Ltd. (Beijing, China) and housed under standard laboratory conditions throughout the study. All animals were housed in a controlled environment (22 ± 2 °C, 55 ± 10% humidity) under a 12/12 h light/dark cycle, with free access to a standard laboratory rodent diet and water. A 12 h fasting period was implemented prior to the experiment, with water permitted ad libitum. All animal procedures were performed in strict accordance with protocols approved by the Biological and Medical Ethics Committee of Minzu University of China.
After fasting for 12 h (with free access to water), SD rats (n = 25) were randomly divided into five groups (n = 5 per group). Group 1: crystalline Cur (i.v., dissolved in saline with 5% DMSO). Group 2: crystalline Cur (p.o., suspended in 0.5% CMC-Na). Group 3: Cur/P188 ASD (1:8, w/w; p.o.). Group 4: Cur/P188/TW80 ASD (1:8:1, w/w/w; p.o.). Group 5: Cur/P188/SLS ASD (1:8:1, w/w/w; p.o.). Group 1 received the formulation via tail vein injection, while Groups 2–5 were suspended in water (pH 7.0) and administered orally by gavage at a Cur-equivalent dose of 40 mg/kg. Blood samples (0.2 mL) were collected from each rat at 4, 7, 10, 20, and 30 min, and 1, 2, 4, and 24 h post-dosing. Plasma was separated by centrifugation (5000 rpm, 5 min, 4 °C) and stored at −80 °C until analysis.
Cur was extracted from 50 μL of plasma using 600 μL of ethyl acetate and quantified by LC-MS/MS, with diclofenac sodium (20 μL, 200 ng/mL) serving as the internal standard. Blank plasma was obtained from a separate control group (n = 5) that received water only. Analysis of these blank samples confirmed the absence of significant matrix interference, thereby validating the analytical method.
Cur quantification in cellular and rat plasma samples was carried out using a SCIEX QTRAP® 5500 LC-MS/MS system coupled with a SCIEX ExionLC^TM AC system (AB SCIEX, Framingham, MA, USA).
Separation was achieved on an Acquity UPLC® BEH C18 column (100 × 2.1 mm, 1.7 μm; Waters) maintained at 40 °C. The mobile phase consisted of (A) 0.1% formic acid in water and (B) acetonitrile (ACN), delivered at a flow rate of 0.14 mL/min with the following gradient program: 10% B (0–1.0 min), increased to 95% B (1.0–9.0 min), and returned to 10% B (9.0–12.0 min). The injection volume was 5 μL. The retention times were approximately 4.85 min for Cur and 6.70 min for diclofenac sodium, used as the internal standard (IS).
Mass spectrometric detection was performed using an IonDrive^TM Turbo V ion (SCIEX, Framingham, MA, USA) source operating in negative electrospray ionization (ESI) mode. Quantification was conducted via multiple reaction monitoring (MRM) at m/z 367.1→133.9 for Cur, and m/z 294.1→250.0 for diclofenac sodium (IS). The assay was linear over the concentration range of 2-500 ng/mL (R^2 > 0.999). All data were acquired in triplicate (n = 3) and processed using MultiQuant software version 3.0.2 (AB SCIEX).
Pharmacokinetic parameters were calculated using non-compartmental analysis with DAS 2.0 software (Boying Corporation, Beijing, China). Data analysis was performed using GraphPad Prism 10.1.2 software. The result is expressed as mean ± standard deviation (SD). For pairwise comparisons between groups, t-tests were conducted. For multiple group comparisons, one-way analysis of variance (ANOVA) was performed, followed by Tukey’s post hoc test for multiple comparisons. Prior to ANOVA, the assumptions of normality and homogeneity of variances were verified using the Shapiro–Wilk test and Bartlett’s test, respectively. p < 0.05 indicates statistically significant differences.

Where [3] appears, read: male, Sprague-Dawley, plasma, oral (o.p.), 40 mg/kg Cur-equivalent.

Converted amounts (≈) assume the structure as drawn. “And” between values parts separate entries of the source, which are not always exact repeats. Identical values can stand only once. Like-named read-outs stand apart in the source and are kept apart here.

By Cmax is commonly meant the maximum level reached in the sampled fluid or tissue. The Tmax is the time from dosing to the highest level. As usually defined, the half-life is the time needed for the level to fall by half in the phase considered. What is called bioavailability is the share of a dose that reaches the circulation, judged against a reference dose that is usually intravenous. As to `COc1cc(/C=C/C(=O)CC(=O)/C=C/c2ccc(O)c(OC)c2)ccc1O` [Crystalline Cur, Curcumin], the solubility thermodynamic at 24 h in series [1] (aqueous P188/SLS solution (8 mg/mL + 1 mg/mL), pH 7, aqueous with cosolvent or surfactant or cyclodextrin, thermodynamic from solid, P188/SLS 8 mg/mL + 1 mg/mL in water, 37 °C) was 8.5 µg/mL; in series [1] (aqueous P188/TW80 solution (8 mg/mL + 1 mg/mL), pH 7, aqueous with cosolvent or surfactant or cyclodextrin, thermodynamic from solid, P188/TW80 8 mg/mL + 1 mg/mL in water, 37 °C), 10.3 µg/mL; in series [1] (aqueous P188 solution (8 mg/mL), pH 7, P188 8 mg/mL in water, 37 °C), < 0.1 µg/mL; in series [1] (aqueous SLS solution (1 mg/mL), pH 7, SLS 1 mg/mL in water, 37 °C), < 0.1 µg/mL; in series [1] (aqueous TW80 solution (1 mg/mL), pH 7, aqueous with cosolvent or surfactant or cyclodextrin, thermodynamic from solid, TW80 1 mg/mL in water, 37 °C), 9.1 µg/mL (≈ 24.7 µM); in series [1] (thermodynamic from solid, pure water, pH 7.0, 37 °C, filtered 0.22 μm), < 0.1 µg/mL. The Cmax in series [2] (setting [3]) came out at 2.4 ± 0.4 ng/mL. Moreover, the Tmax in series [2] (setting [3]) worked out at 0.2 h. In series [2] (setting [3]), the half-life is 1.8 ± 0.4 h. Further, the MRT last in series [2] (male, Sprague-Dawley, plasma, oral (o.p.), 40 mg/kg Cur-equivalent, read-out: MRT(0–24)) turned out to be 6.3 ± 2 h. Moreover, the bioavailability in series [2] (male, Sprague-Dawley, plasma, oral, 40 mg/kg, oral 40 mg/kg relative to intravenous administration, read-out: F (absolute oral bioavailability)) is ~1%. Moreover, in series [2] (male, Sprague-Dawley, plasma, po, 40 mg/kg, oral (o.p.), 40 mg/kg, 0.12 h, Rat1-Rat5, read-out: plasma concentration of Cur, individual animals), the concentration at 0.12 h stood at 2.6 ng/mL. Besides, the concentration at 0.17 h in series [2] (male, Sprague-Dawley, plasma, po, 40 mg/kg, oral (o.p.), 40 mg/kg, 0.17 h, Rat1-Rat5, read-out: plasma concentration of Cur, individual animals) is 2.8 ng/mL. Also, the “F (absolute oral bioavailability)” value in series [2] (oral 40 mg/kg relative to intravenous administration, 40 mg/kg) is 0.97%. Also, the “plasma concentration of Cur, individual animals” value in series [2] (oral (o.p.), 40 mg/kg, 0.07 h) was 1.7 ng/mL and 1.4 ng/mL (2×) and 0.7 ng/mL and 1.1 ng/mL; in series [2] (oral (o.p.), 40 mg/kg, 0.12 h), 2.6 ng/mL and 2.1 ng/mL and 1.6 ng/mL and 1.9 ng/mL; in series [2] (oral (o.p.), 40 mg/kg, 0.17 h), 2.8 ng/mL and 2.5 ng/mL and 2.1 ng/mL and 2.0 ng/mL; in series [2] (oral (o.p.), 40 mg/kg, 0.33 h), 2.5 ng/mL and 2.1 ng/mL and 2.0 ng/mL and 1.5 ng/mL and 1.0 ng/mL; in series [2] (oral (o.p.), 40 mg/kg, 0.5 h), 2.2 ng/mL and 1.4 ng/mL and 1.2 ng/mL (2×) and 0.542 ng/mL; in series [2] (oral (o.p.), 40 mg/kg, 1 h), 1.4 ng/mL and 0.7 ng/mL and 0.845 ng/mL and 0.9 ng/mL and 0.369 ng/mL. Moreover, the “plasma concentration of Cur, individual animals” value in series [2] (oral (o.p.), 40 mg/kg, 2 h) was 0.64 ng/mL and 0.9 ng/mL and 0.5 ng/mL and 0.7 ng/mL and 0.2 ng/mL; in series [2] (oral (o.p.), 40 mg/kg, 4 h), 0.256 ng/mL and 0.433 ng/mL and 0.228 ng/mL and 0.35 ng/mL and 0.125 ng/mL; in series [2] (oral (o.p.), 40 mg/kg, 24 h), 0.08 ng/mL and 0.056 ng/mL and 0.2 ng/mL and 0.112 ng/mL and 0.1 ng/mL.

Values taken from article PMC12736958 (Pharmaceutics, 2025).
